From patent publication US11865157B2, “Compositions and methods of targeting cancer stem cells” (University of Houston System, priority 2016, dated 2024)
Numbered stars: 1 amine (or outer) side, 2 acyl side, 3 side chain; on linkers, the order of the positions; unused ones are H or OH. Square brackets hold non-standard residues; d marks the D form. Peptide text beside a SMILES is read from it. ξ: configuration not given here. Gly(N-piperonyl) = O=C(O)CNCc1ccc2c(c1)OCO2; X1 = CC(c1ccccc1)N(CC(=O)[*:2])[*:1]; Nlys = NCCCCNCC(=O)O; ξK = NCCCCC(N)C(=O)O; ξM = CSCCC(N)C(=O)O; Nme = COCCNCC(=O)O

Legend:
ALDH+ H358 CSCs = test: On-bead binding of sorted ALDH+ and ALDH− H358 cells to PCS2-carrying beads; assay type: cell-based
Procedure: (§1) On-bead binding assay: 50 mg of peptoid-carrying tentagel beads or 1.3×10^6 of peptoid-carrying magnetic beads were equilibrated in 2 mL RPMI containing 5% FBS and 3% BSA (Sigma) for 1 hour by shaking. The beads can then be equilibrated with 5×10^6 of each cancer cell type listed above in 2 mL RPMI containing 5% FBS and 1% BSA at room temperature for 15-60 minutes for binding. The cell-bound beads are then pulled down with a magnet and washed with RPMI to cleanly harvest bound cells. Unbound cells were collected separately for further confirmations.
To confirm the binding specificity of PCS2 to CSCs, sorted ALDH+ H358 CSCs (red stained) and ALDH− H358 cells (green stained) were exposed to PCS2-carrying beads. […] The same assay was repeated after allowing these CSC population to grow for 2 weeks, where by then the CSC percentage in the ALDH+ sorted population became low, the number of cells bound was very low (FIG. 4E), indicating PCS2 recognizes a unique target specific for CSCs, but not other cancer cells.

plectin = biological target: T1, plectin (Homo sapiens, UniProt Q15149); test: Magnetic-bead binding assay with plectin antibody competition or plectin siRNA knockdown
T1 construct: endogenous in cells; host or cells: H358, H1693, H1975, H1993 cells
T1 sequence (Q15149 whole entry): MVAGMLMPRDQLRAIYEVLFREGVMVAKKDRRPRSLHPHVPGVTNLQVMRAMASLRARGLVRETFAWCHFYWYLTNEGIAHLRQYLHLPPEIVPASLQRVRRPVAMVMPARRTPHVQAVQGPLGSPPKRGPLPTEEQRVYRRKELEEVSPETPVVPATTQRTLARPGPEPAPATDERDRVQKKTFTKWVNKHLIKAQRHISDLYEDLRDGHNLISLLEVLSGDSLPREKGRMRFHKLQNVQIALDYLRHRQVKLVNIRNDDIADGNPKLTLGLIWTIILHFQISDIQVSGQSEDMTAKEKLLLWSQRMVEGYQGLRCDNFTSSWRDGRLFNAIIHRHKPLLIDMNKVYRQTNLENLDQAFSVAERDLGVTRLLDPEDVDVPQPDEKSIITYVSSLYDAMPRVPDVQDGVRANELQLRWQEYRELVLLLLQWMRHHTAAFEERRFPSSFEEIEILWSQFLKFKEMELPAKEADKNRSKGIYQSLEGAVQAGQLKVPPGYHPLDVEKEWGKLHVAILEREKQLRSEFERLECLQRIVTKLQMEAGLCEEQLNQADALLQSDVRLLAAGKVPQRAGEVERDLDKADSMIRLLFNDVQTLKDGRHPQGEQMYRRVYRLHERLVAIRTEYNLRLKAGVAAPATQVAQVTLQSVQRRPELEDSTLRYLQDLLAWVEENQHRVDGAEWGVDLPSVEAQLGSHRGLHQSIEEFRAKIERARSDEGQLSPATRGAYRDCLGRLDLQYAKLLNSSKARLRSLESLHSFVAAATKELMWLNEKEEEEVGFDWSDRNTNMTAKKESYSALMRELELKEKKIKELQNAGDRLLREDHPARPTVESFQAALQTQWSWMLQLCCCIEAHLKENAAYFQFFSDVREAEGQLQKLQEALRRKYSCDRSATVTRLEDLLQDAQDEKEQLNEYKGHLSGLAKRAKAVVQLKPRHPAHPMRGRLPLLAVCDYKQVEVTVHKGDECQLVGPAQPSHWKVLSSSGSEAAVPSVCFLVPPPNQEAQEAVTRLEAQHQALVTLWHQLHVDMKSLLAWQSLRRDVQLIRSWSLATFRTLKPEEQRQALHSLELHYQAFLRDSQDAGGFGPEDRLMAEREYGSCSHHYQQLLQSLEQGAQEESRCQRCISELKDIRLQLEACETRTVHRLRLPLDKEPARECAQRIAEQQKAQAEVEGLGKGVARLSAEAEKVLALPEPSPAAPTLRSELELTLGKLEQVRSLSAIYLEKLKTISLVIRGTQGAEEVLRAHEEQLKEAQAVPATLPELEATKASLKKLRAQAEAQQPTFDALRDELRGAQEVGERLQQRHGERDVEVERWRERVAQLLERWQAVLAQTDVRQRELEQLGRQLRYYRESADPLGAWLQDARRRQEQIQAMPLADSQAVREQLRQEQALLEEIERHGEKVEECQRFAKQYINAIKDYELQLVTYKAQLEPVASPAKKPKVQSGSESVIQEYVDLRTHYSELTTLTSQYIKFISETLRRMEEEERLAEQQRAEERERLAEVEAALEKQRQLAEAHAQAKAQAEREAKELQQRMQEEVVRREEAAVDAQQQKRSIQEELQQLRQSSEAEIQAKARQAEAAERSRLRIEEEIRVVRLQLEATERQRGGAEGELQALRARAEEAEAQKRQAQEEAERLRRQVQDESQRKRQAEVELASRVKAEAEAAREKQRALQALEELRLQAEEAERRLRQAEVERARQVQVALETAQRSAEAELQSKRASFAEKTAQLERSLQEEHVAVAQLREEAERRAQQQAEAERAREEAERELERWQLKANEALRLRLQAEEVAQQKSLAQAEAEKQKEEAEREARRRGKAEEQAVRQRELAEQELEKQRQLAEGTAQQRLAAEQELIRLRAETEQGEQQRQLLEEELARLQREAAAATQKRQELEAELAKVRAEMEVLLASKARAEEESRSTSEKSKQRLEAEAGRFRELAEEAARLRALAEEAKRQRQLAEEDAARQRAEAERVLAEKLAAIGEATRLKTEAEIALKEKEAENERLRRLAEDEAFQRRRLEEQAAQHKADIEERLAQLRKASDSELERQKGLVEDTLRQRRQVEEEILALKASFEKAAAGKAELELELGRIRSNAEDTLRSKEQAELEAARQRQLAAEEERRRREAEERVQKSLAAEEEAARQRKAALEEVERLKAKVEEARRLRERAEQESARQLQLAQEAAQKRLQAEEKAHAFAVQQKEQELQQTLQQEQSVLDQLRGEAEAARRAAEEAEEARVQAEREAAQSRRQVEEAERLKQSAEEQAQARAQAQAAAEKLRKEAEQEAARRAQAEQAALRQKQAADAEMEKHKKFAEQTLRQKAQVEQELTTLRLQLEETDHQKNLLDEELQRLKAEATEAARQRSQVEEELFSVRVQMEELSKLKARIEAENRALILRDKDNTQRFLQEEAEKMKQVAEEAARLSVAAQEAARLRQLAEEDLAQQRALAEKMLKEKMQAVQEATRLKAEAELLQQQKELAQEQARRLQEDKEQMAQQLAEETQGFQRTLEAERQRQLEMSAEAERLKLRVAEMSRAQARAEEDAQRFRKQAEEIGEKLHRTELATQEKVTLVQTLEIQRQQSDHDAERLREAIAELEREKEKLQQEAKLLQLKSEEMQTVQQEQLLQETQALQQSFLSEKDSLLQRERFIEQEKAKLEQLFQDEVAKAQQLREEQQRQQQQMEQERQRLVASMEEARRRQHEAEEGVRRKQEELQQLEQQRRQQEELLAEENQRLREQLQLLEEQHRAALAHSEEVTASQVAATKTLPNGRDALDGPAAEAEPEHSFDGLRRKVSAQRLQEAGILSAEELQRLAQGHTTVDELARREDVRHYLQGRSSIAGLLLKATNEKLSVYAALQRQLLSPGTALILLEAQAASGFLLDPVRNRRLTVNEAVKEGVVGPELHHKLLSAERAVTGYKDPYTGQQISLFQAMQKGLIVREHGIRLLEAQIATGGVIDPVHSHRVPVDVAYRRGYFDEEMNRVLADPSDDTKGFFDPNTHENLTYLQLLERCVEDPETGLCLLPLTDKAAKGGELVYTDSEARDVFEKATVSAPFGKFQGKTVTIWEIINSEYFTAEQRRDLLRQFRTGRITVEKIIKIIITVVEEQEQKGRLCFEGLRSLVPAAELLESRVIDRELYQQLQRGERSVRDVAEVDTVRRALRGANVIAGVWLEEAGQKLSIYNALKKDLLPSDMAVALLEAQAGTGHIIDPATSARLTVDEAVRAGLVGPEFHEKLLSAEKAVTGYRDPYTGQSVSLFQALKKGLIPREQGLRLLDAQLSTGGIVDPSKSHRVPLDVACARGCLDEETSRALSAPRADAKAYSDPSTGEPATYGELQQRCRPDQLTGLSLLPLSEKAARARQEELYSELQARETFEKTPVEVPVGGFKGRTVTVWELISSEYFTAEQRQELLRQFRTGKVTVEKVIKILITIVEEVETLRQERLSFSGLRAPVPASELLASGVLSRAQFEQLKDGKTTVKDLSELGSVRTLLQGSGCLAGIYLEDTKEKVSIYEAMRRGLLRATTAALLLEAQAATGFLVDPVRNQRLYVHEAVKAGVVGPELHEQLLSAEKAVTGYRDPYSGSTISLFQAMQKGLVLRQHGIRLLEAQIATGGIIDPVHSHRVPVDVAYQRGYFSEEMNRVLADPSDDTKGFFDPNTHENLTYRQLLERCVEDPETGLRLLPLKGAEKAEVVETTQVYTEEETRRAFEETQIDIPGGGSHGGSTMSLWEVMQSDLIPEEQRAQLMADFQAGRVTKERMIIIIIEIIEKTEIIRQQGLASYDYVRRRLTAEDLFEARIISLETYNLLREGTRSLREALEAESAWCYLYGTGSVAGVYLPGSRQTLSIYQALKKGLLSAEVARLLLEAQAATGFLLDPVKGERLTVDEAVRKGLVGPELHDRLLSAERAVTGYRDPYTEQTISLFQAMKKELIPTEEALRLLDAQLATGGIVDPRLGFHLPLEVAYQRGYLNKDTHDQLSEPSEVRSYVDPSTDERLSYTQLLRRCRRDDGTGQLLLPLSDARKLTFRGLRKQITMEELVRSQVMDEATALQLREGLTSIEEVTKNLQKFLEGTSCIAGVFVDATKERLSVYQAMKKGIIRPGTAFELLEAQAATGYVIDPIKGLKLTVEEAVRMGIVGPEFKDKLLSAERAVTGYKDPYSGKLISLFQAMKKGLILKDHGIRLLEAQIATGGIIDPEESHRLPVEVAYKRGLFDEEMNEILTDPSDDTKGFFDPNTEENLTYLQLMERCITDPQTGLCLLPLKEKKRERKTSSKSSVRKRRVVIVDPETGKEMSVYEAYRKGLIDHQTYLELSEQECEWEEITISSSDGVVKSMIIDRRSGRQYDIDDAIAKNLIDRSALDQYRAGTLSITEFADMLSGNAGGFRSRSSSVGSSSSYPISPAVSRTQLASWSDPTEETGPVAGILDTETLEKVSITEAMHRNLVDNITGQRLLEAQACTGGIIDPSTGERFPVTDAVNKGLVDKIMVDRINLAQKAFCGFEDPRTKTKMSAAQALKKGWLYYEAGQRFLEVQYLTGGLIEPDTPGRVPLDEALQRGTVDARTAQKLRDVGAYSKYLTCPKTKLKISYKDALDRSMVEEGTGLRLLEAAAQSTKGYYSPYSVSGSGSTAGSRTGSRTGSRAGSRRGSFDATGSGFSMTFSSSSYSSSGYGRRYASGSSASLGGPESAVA
Procedure: Unsorted H358 cells were plated on a 6-well plate and grown to 80% confluence. For each well, 9 μL of Lipofectamine RNAiMAX (Thermo Fisher) was mixed with 3 μL of 10 μM siRNA, either silencer select s10644 plectin or silencer select negative control 1 (Thermo Fisher), in serum-free RPMI and incubated for 5 minutes. The mixture was then added to the well and incubated for 1 to 4 days before testing. Magnetic binding assays were performed on harvested cells as described above for binding evaluation.
Plectin expression was directed tested on PCS2-bound cells from H358, HCC4017, H460, H1299, H2073, H1693, H1993, H1975 cells by RT-QPCR (FIG. 22A). […] To determine if PCS2 and the plectin antibody compete for binding, the magnetic-bead binding assay was repeated in the presence of the plectin antibody. […] Since previous reports have shown cells to be sufficiently stable for further assays with plectin knock-down, plectin knockdown was conducted in H358, H1693, H1975 and H1993 cells using siRNA using the magnetic-bead binding assay described above. […] From these observations, it was concluded that plectin is the cell-surface marker that PCS2 is targeting.

H358 cells [1] = test: Clonogenicity assay under treatment; assay type: cell-based; conditions: 500 cells/well, 30 and 100 μM, 2 weeks
Procedure: To further validate that PCS2D1 inhibiting CSCs, the effects of PCS2D1 against a stem-cell-associated phenotype were studied with regards to the capacity to form colonies from a single cell by using the clonogenicity assay. About 300 cells were plated onto 35 mm cell culture plates with either 0, 1, 10, 30, or 100 μM of PCS2D1, and allowed to grow for 2 weeks. After staining with crystal violet, both the number of colonies and the overall morphology of the colonies were evaluated.
The clonogenicity assay was repeated with H358 cells, 500 cells/well, using 0, 10, 30 and 100 μM PCS2 treatment over 2 weeks. […] To confirm that this was due to the specific targeting on CSCs, the clonogenicity assay was performed again over 8 days, with the treatment performed from day 7 to 8 instead, to allow the colonies to establish. This was done alongside control cells plated on chamber slides and then grown under the same conditions.

H358 cells [2] = test: Magnetic-bead pull-down assay; assay type: cell-based
Procedure: as §1
To confirm the binding specificity of PCS2 to CSCs, CSCs isolated from H358 cells and normal mesenchymal stem cells (MSCs) were exposed to PCS2-carrying beads as described in Example 3, and then separated by magnet into peptoid-bound and peptoid-unbound fractions (FIG. 19A). […] RNA from both bound and unbound fractions was harvested and analyzed by RT-qPCR to determine the relative expression of several known CSC biomarkers in each fraction was assessed, including expression of ALDH1A3 (FIG. 19B), CD133 (FIG. 19C), CD44 (FIG. 19D), and SOX2 (FIG. 19E). […]
To further evaluate this plectin-CSC connection, it was confirmed that CSCs can be isolated through cell surface plectin via a PCS2-independent approach. […] Next the mRNA levels of two known CSC biomarkers was analyzed on these cell groups by RT-QPCR, along with plectin (PLEC). […]

H358 and HCC4017 cells = test: ALDEFluor staining of PCS2-bound and PCS2-unbound fractions; assay type: cell-based
Procedure: To confirm that the peptoid-bound fraction was CSCs, a subset of PCS2-bound and PCS2-unbound fractions from H358 cells were generated and stained with the ALDEFLuor kit, which produces green fluorescence when the ALDH protein is active in a cell, and DAPI, and then analyzed them under a fluorescence microscope. […] An equal number of PCS2-bead sorted cells from the H358 and HCC4017 cell lines were also treated with the Aldefluor kit and their relative fluorescence was evaluated using a spectrophotometer (FIG. 7B & C).

bound cells after plectin siRNA knockdown vs control siRNA (plectin; H358, H1693, H1975 and H1993 cells): dramatic decrease
cells bound to PCS2-magnetic-beads in the presence of plectin antibody (plectin; all cell lines tested): fewer cells bound
Compound: COCCNCC(=O)N(CCCCN)CC(=O)N(CC(=O)N(CC(=O)N(CCCCN)CC(=O)NC(CCCCN)C(=O)N[C@H](CCCCN)C(=O)NC(CCSC)C(N)=O)C(C)c1ccccc1)Cc1ccc2c(c1)OCO2 (stereo partly drawn) [PCS2] (H-[Nme][Nlys][Gly(N-piperonyl)][X1][Nlys][ξK][dK][ξM]-NH2)
number of cells bound to PCS2-beads (ALDH+ H358 CSCs; ALDH+ sorted population after 2 weeks of growth): very low
binding of PCS2-beads to sorted ALDH+ (red) vs ALDH− (green) H358 cells (ALDH+ H358 CSCs; freshly sorted cells): only bound significantly to the red CSCs
colonies formed (H358 cells [1]): Significantly fewer colonies formed
binding of PCS2 beads to CSCs from H358 vs normal MSCs (H358 cells [2]; bound vs unbound fractions): bound significantly higher on CSCs from H358 than normal MSCs
cells isolated (pull-down) from H358 (H358 cells [2]; coated magnetic beads): 28-38%
ALDEFluor green fluorescence of PCS2-bound fraction (H358 and HCC4017 cells; H358, fluorescence microscope, vs unbound or untreated fractions): significantly stronger green fluorescence
relative ALDEFluor fluorescence of PCS2-bead sorted cells (H358 and HCC4017 cells; H358 and HCC4017, spectrophotometer): fluorescence was higher in bound cells
